Assay results as given in EP4781984A1 (Beyang Therapeutics Co., Ltd., priority 2023, dated 2025).

Tests used:
[1] = target: T1, VEGFR1 (Homo sapiens, UniProt P17948); experiment: Kinase inhibitory activity, Mobility Shift Assay (VEGFR1); assay type: biochemical
T1 construct: purchased Invitrogen PR6731B
Protocol: (§1) Assay for Inhibitory Activity of Compounds Against VEGFR and EGFR Kinases
(§2) This assay directly monitors the inhibitory activity of compounds on kinase phosphorylation by measuring non-phosphorylated and phosphorylated substrates in the kinase reaction using Mobility Shift Assays/IMAP™ analysis. Table 2. Reagents and Instruments
(§3) Kinase and DTT were added to 1X kinase buffer to form a 2.5X kinase solution; 10 µL of the 2.5X kinase solution was transferred to a 384-well reaction plate, and 1X kinase buffer was added to the negative control wells. The plate was incubated at room temperature for 10 minutes; FAM-labeled peptide, MgCl2, ATP, and other reagents were added to 1X kinase buffer to form a 2.5X substrate solution; 10 µL of the above 2.5X substrate solution was transferred to the 384-well reaction plate; the plate was incubated at 28°C for varying times, and then 25 µL of stop solution was added to the 384-well reaction plate to terminate the reaction. Conversion rate data were read on a CaliperEZ Reader II. […] IC50 values were fitted using XLFit excel add-in version 5.4.0.8. Y = Bottom + (Top−Bottom)/(1 + […]) [formula]
(§4) X is the log value of compound concentration, Y is the inhibition rate (% inhibition).

[2] = target: T2, EGFR (Homo sapiens, UniProt P00533); experiment: Kinase inhibitory activity, Mobility Shift Assay (EGFR); assay type: biochemical
T2 construct: purchased Carna 08-115
Summary of the method: (§5)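 Each kinase pre-incubated 10 min at room temperature, then FAM-labelled peptide with MgCl2 and ATP added; reaction at 28 °C for kinase-dependent times before stop. Substrate conversion read by mobility shift; IC50 from a four-parameter fit of % inhibition against log concentration.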

[3] = target: T3, VEGFR3 (Homo sapiens, UniProt P35916); experiment: Kinase inhibitory activity, Mobility Shift Assay (VEGFR3); assay type: biochemical
T3 construct: purchased Invitrogen PV4129
Protocol: as §1, §2, §3, §4

[4] = target: T4, VEGFR2 (Homo sapiens, UniProt P35968); experiment: Kinase inhibitory activity, Mobility Shift Assay (VEGFR2); assay type: biochemical
T4 construct: purchased Carna 08-191
Summary of the method: as §5

[5] = target: T5, VEGFR2 autophosphorylation (pVEGFR2) in HUVEC cells (Homo sapiens, UniProt P35968); experiment: Inhibition of VEGF-induced VEGFR2 phosphorylation in HUVEC cells (ELISA); assay type: cell-based; details: 50 ng/mL human VEGF, compound 1 hour
T5 construct: endogenous in cells; host or cells: HUVEC
Text: Assay for Compound Inhibition of VEGFR2 Phosphorylation in HUVEC Cells
VEGF is a potent growth factor that promotes angiogenesis and vascular permeability. Vascular endothelial growth factor receptor 2 (VEGFR2) is the primary receptor for VEGF-induced endothelial cell signaling. Upon ligand binding, VEGFR2 undergoes autophosphorylation and is activated. The primary function from VEGFR2 signaling is to induce blood vessel formation during development and after tissue injury, and to bypass blocked vessels. Pathologically, VEGF and VEGFR2 are involved in tumor angiogenesis and vascular leakage. They are considered major players in many different cancers and ocular diseases accompanied by pathological neovascularization. This assay uses ELISA to measure the compound's ability to inhibit VEGF-induced VEGFR2 autophosphorylation (pVEGFR2) in HUVEC cells. Table 7. Reagents and Instruments
Before cell seeding, cells reached 60%-80% confluency in cell culture flasks. The cell suspension was diluted with pre-warmed complete medium to 4.5×10^6 cells/mL. 80 microliters of cell suspension was added to all wells of a 96-well cell plate (Corning-3599); incubated overnight at 37°C and 5% CO2. Compound powder was dissolved in DMSO to 10 mM and stored in a nitrogen cabinet. Compound dilution master plate: In a 96-well V-bottom plate (Axygen- WIPP02280), reference compound Ponatinib or test compound concentrations were added, starting from 5 mM (5 microliters of 10 mM compound solution plus 5 microliters DMSO) with 3-fold serial dilutions for a total of 8 concentration points. […] 20 microliters of diluted compound was transferred from the intermediate plate to the cell plate. The cell plate was then incubated at 37°C and 5% CO2 for 1 hour. […] It was gently shaken for 30 seconds, and the absorbance was measured within 30 minutes using a SpectraMax® 340 PC 384 Absorbance Microplate Reader, reading the optical density value at 450 nm. […]
All other values are expressed as a percentage of these controls (inhibition rate). […]

[6] = Ophthalmic formulations based on polyethylene glycol series vehicles: composition and state (Example 7); assay type: physicochemical
Summary of the method: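 Compound was dissolved, or nearly dissolved, in PEG 400 by sonication (heated to 50 °C if needed), then mixed into Tris-HCl buffer containing hydroxypropyl-β-cyclodextrin, poloxamer 188 and gellan gum or another viscosity modifier. Physical state was scored visually as solution, near-clear solution, suspension or gel.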

[7] = Table 15: 10 mg/mL, Polyethylene glycol 400 10, Hydroxypropyl-β-cyclodextrin 10, Gellan Gum Gelrite 0.3, Poloxamer 188 1, Tris solution and Citric acid
[8] = Table 16: 2 mg/mL, Polyethylene Glycol 400 5, Poloxamer 188 1, Hydroxypropyl-β-cyclodextrin 6, Gellan Gum Gelrite 0.15, Tris-HCl Buffer (pH 6.8) 25mM

T5 sequence (P35968 20-1356): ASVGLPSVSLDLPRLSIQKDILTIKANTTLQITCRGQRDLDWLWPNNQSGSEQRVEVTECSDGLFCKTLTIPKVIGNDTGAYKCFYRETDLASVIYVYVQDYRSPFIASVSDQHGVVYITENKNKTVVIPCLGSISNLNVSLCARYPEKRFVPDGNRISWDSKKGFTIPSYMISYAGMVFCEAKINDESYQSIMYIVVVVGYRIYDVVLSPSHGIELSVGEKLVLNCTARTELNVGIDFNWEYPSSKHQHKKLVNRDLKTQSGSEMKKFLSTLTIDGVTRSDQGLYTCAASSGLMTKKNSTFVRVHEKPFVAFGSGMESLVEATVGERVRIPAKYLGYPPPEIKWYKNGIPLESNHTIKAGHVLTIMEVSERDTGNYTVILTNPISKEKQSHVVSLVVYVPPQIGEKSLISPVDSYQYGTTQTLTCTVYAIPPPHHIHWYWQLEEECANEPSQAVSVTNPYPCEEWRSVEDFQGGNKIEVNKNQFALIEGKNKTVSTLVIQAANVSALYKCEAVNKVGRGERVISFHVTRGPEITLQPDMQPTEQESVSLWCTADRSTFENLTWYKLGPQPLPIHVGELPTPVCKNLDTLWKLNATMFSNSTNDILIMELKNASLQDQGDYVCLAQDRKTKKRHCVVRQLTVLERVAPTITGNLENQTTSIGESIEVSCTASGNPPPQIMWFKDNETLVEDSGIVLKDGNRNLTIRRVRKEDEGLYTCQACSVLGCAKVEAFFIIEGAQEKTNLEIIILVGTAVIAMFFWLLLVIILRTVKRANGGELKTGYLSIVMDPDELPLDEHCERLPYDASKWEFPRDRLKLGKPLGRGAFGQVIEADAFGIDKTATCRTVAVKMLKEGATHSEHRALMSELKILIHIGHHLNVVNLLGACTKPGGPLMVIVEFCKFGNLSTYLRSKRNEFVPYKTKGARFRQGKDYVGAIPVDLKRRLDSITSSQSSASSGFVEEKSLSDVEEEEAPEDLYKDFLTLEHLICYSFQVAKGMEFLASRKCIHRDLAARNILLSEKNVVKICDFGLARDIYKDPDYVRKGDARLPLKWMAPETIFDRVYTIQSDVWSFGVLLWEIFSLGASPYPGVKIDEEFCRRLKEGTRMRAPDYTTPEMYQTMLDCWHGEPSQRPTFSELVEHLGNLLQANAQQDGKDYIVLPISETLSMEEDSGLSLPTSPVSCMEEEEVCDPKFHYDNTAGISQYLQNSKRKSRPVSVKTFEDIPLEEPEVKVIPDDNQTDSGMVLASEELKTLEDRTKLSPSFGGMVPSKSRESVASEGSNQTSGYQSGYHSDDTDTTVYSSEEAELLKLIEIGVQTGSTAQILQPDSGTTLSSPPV
T4 sequence (P35968 20-1356): as above
T3 sequence (P35916 25-1363): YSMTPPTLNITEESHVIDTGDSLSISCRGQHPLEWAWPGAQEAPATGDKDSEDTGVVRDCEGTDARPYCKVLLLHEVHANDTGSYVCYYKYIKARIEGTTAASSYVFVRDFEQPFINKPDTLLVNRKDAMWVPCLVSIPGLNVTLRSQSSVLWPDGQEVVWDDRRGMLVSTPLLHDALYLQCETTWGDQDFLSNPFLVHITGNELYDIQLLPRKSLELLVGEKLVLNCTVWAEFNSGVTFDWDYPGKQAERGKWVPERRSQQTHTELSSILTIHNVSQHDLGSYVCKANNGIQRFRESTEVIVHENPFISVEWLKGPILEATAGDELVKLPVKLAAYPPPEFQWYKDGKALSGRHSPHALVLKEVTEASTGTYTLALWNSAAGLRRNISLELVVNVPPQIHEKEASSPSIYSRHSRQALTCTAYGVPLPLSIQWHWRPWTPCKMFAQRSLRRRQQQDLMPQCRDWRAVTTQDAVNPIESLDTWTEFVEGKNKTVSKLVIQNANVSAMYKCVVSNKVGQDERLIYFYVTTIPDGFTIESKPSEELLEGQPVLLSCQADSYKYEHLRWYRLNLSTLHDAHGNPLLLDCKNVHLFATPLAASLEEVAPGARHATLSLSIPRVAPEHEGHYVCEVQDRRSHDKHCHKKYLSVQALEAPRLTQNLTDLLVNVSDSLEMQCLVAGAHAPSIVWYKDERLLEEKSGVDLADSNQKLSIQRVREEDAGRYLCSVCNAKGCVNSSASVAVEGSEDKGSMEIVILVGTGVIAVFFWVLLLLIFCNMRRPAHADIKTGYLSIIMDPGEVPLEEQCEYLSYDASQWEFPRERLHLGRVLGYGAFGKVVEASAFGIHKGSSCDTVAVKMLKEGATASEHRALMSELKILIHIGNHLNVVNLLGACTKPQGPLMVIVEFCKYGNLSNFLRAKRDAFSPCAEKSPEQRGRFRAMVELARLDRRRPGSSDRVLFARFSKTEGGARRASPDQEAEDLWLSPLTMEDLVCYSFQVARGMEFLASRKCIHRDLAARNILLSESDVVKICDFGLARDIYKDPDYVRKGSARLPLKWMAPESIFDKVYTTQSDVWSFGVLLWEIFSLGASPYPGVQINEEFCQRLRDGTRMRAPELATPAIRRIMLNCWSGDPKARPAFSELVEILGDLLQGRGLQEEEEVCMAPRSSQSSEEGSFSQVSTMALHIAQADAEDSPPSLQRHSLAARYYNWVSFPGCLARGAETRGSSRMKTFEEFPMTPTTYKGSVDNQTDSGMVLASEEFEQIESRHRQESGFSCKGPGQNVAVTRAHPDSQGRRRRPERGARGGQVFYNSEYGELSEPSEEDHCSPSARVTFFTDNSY
T2 sequence (P00533 25-1210): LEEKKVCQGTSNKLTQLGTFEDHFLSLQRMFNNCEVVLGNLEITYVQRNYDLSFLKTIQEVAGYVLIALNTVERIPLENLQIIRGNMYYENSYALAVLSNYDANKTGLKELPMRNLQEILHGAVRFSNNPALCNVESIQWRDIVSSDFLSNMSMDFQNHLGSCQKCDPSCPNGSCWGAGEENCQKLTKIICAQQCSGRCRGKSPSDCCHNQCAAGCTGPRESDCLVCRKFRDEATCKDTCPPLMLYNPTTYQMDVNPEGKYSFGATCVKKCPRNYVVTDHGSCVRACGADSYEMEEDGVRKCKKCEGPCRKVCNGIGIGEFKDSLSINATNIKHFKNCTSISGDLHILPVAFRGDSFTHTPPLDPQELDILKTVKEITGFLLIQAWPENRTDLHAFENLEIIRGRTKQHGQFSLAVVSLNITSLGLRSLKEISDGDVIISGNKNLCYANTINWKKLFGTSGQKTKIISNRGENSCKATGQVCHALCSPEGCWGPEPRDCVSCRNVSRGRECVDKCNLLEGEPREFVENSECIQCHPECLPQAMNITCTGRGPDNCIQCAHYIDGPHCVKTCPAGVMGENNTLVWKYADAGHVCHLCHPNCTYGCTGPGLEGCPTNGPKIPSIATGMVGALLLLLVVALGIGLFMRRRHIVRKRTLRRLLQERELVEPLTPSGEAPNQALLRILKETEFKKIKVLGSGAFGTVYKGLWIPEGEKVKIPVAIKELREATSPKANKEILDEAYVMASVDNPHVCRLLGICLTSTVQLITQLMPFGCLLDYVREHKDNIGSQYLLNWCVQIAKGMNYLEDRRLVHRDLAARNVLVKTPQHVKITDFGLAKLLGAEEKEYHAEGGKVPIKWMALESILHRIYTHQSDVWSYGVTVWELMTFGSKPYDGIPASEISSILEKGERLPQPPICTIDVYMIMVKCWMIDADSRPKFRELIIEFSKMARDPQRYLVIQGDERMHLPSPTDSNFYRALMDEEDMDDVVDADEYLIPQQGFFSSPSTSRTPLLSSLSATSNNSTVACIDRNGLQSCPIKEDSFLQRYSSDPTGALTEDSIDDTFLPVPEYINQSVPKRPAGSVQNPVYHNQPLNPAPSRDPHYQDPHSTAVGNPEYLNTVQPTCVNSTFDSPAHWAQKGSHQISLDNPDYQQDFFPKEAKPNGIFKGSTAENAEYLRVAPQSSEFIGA

Row | IC50 [1] | IC50 [2] | IC50 [3] | IC50 [4] | IC50 [5] | State Description: pH [6, 7] | State Description: state [6, 7] | Osmolality (mOsm/kg) [6, 8] | State Description: pH [6, 8] | State Description: state [6, 8] | Structure (SMILES)
1 | 1 to 10 nM | 6000 to 60000 nM | 10 to 100 nM | 1 to 10 nM | 1 to 5 nM |  |  |  |  |  | O=C(NC1CC1)c1cccc(F)c1Sc1ccc2c(/C=C/c3cnn(CCCN4CCCC4)c3)n[nH]c2c1 [Compound I-44, N-cyclopropyl-3-fluoro-2-({3-[(E)-2-{1-[3-(pyrrolidin-1-yl)propyl]-1H-pyrazol-4-yl}ethenyl]-1H-indazol-6-yl}sulfanyl)benzamide]
2 |  |  |  |  |  | ~5.5 | gel | ~300 mOsm/kg | ~7 | solution | CCNC(=O)c1cc(F)ccc1Sc1ccc2c(/C=C/c3ccc(CN4CCCC4)cn3)n[nH]c2c1 [Compound I-97, N-ethyl-5-fluoro-2-({3-[(E)-2-{5-[(pyrrolidin-1-yl)methyl]pyridin-2-yl}ethenyl]-1H-indazol-6-yl}sulfanyl)benzamide]
